# From patent US20110207740A1, “PHARMACEUTICAL COMPOSITIONS” (priority 2003, published 2011)
# What was measured:
# pKa (titrated) = assay type: physicochemical
# Experimental: As expected, solubility improves with ionization. However, even when essentially all of the compound carries a +1 charge, the aqueous solubility remains poor, e.g., at pH 4 the solubility is <2 μg/mL. Similarly, at pH 2 the average charge will be +2 but, the solubility for this strongly charged compound is only 1 mg/mL. Based on the pKa values, under still more acidic conditions this compound will have an average charge of +3 and the solubility might be expected to increase further. However, no further increase in solubility has been achieved, i.e., at pH 1.0 (0.1 NHCL) the solubility of this compound decreases to <1 mg/mL. This type of decrease in solubility is consistent with the formation of insoluble chloride salts.
# [1] = Aqueous solubility (buffers, pH dependence); assay type: physicochemical
# Description: As expected, solubility improves with ionization. […] This type of decrease in solubility is consistent with the formation of insoluble chloride salts. […] However, as shown in the Table 1 below, the A2a receptor antagonist compound described above has both low aqueous and non-aqueous solubility.
# [2] = Non-aqueous solubility (ethanol, propylene glycol, soybean oil); assay type: physicochemical
# Description: However, as shown in the Table 1 below, the A2a receptor antagonist compound described above has both low aqueous and non-aqueous solubility.
# [3] = Formula 1 concentration in acidified propylene glycol stock solutions and after dilution with deionized water; assay type: physicochemical
# Description: [table] […] In this way, the concentration of propylene glycol was decreased 10 fold from the initial concentration of 86% to a final concentration of 8.6%. […] Similarly, Formula 1 solubility should not be affected by the 2-10× dilution of sodium docusate as this surfactant will still be present at levels above its critical micelle concentration (CMC).
# [4] = Extraction of Formula 1 from stock solutions into soybean oil; assay type: physicochemical; details: excess Formula 1
# [5] = Formula I:docusate complex dissolved in propylene glycol (Example 1); assay type: physicochemical
# Experimental: A non-aqueous embodiment of the formulations of the present invention was prepared as set forth by the following procedure. A first solution was prepared by adding 100 mg of the compound of Formula I above to 500 mL of 0.01 NHCL. Next, a second Solution was prepared by adding 20 grams of sodium docusate to 500 mL of 0.01 NHCL. These two solutions were mixed and a complex of the compound of Formula I and docusate sodium was precipitated from solution. The precipitate was thereafter separated by centrifuging the mixture, decanting the supernatant and then drying the residue complex.
# The dried residue was then dissolved in a small quantity of propylene glycol and the concentration of the compound of Formula I in this solution was determined to be 2.5 mg/mL.
# [6] = Precipitation from acidic aqueous solution in presence of sodium docusate; assay type: physicochemical; details: pH 2.0, 0.1 mg/mL aqueous solution
# Description: For aqueous formulations of the present invention, surfactants such sodium docusate are typically added to improve aqueous solubility. However, sodium docusate actually decreases the aqueous solubility of 7-[2-[4-[4-(methoxyethoxy)phenyl]1-piperazinyl]ethyl]-2-(2-furanyl)-7H-pyrazolo[4,3-e]triazolo[1,5-c]pyrimidin-5-amine under acidic conditions. […] More specifically, by “ion-pair” it is meant to mean the non-covalent bonding of two oppositely charged molecules.
# A2a receptor = A2a receptor (Homo sapiens, UniProt P29274); details: cited from earlier work
# A2a receptor, sequence (P29274 whole entry): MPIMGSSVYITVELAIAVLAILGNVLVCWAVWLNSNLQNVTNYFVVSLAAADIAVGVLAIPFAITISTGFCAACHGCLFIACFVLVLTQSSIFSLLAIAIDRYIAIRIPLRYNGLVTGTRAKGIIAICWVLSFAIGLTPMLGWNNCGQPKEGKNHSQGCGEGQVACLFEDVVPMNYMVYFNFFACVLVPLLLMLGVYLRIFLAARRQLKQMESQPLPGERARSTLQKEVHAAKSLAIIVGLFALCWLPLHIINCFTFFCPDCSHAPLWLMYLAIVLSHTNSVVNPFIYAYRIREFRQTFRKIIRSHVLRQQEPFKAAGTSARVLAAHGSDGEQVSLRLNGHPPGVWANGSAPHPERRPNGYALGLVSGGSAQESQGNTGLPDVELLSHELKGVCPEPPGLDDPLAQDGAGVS
smiles,measurement,setting,value
"COCCOc1ccc(N2CCN(CCn3ncc4c3nc(N)n3nc(-c5ccco5)nc43)CC2)cc1 [Formula 1, 7-[2-[4-[4-(methoxyethoxy)phenyl]1-piperazinyl]ethyl]-2-(2-furanyl)-7H-pyrazolo[4,3-e]triazolo[1,5-c]pyrimidin-5-amine]",pKa,pKa (titrated),6.87
same,solubility,"[1]; 0.1 N HCl, pH 1, simulated gastric fluid, pH 1.0 (0.1 NHCL)",< 1000 µg/mL
same,Aqueous Solubility,[1]; Buffer pH 4,1.7 µg/mL
same,solubility,"[1]; aqueous buffer, pH 3, aqueous buffer, Buffer pH 3",105 µg/mL
same,solubility,"[1]; aqueous buffer, pH 4, aqueous buffer, Buffer pH 4",< 2 µg/mL
same,solubility,"[1]; aqueous buffer, pH 7.4, aqueous buffer, Buffer pH 7.4",< 0.005 µg/mL
same,solubility,"[1]; aqueous medium, pH 2, simulated gastric fluid, pH 2",1000 µg/mL
same,Solubility in aqueous media,[1]; neutral pH,virtually insoluble
same,solubility,"[2]; ethanol, organic solvent or mixture",100 µg/mL
same,solubility,"[2]; propylene glycol, organic solvent or mixture, Propylene Glycol (neutral compound)",~30 µg/mL
same,solubility,"[2]; soybean oil, oil or lipid",< 70 µg/mL
same,"Formula 1 concentration, 86% PG/(Stock)","[3]; Stock solution 1: acidified propylene glycol (86% v/v, citric acid/HCl to pH 3.4), undiluted",9.8 mg/mL
same,"Formula 1 concentration, 43% PG/DF2","[3]; Stock solution 1: acidified propylene glycol, diluted with deionized water DF2",4.6 mg/mL
same,"Formula 1 concentration, 17% PG/DF4","[3]; Stock solution 1: acidified propylene glycol, diluted with deionized water DF4",1.9 mg/mL
same,"Formula 1 concentration, 8.6% PG/DF10","[3]; Stock solution 1: acidified propylene glycol, diluted with deionized water DF10",0.97 mg/mL
same,"Formula 1 concentration, 86% PG/(Stock)","[3]; Stock solution 2: acidified propylene glycol + 36 mg/mL Tween 80, undiluted",8.7 mg/mL
same,"Formula 1 concentration, 43% PG/DF2","[3]; Stock solution 2: acidified propylene glycol + Tween 80, diluted with deionized water DF2",4.0 mg/mL
same,"Formula 1 concentration, 17% PG/DF4","[3]; Stock solution 2: acidified propylene glycol + Tween 80, diluted with deionized water DF4",1.8 mg/mL
same,"Formula 1 concentration, 8.6% PG/DF10","[3]; Stock solution 2: acidified propylene glycol + Tween 80, diluted with deionized water DF10",0.78 mg/mL
same,"Formula 1 concentration, 86% PG/(Stock)","[3]; Stock solution 3: acidified propylene glycol + 61 mg/mL docusate sodium, undiluted",9.2 mg/mL
same,"Formula 1 concentration, 43% PG/DF2","[3]; Stock solution 3: acidified propylene glycol + docusate sodium, diluted with deionized water DF2",0.14 mg/mL
same,"Formula 1 concentration, 17% PG/DF4","[3]; Stock solution 3: acidified propylene glycol + docusate sodium, diluted with deionized water DF4",0.037 mg/mL
same,"Formula 1 concentration, 8.6% PG/DF10","[3]; Stock solution 3: acidified propylene glycol + docusate sodium, diluted with deionized water DF10",0.011 mg/mL
same,Maximum concentration relative to solubility in propylene glycol,[3]; acidified propylene glycol without docusate,300 times
same,Concentration relative to solubility in propylene glycol,[3]; direct addition to acidified propylene glycol and docusate,greater than 300 times
same,Concentration in acidified propylene glycol solution,[3]; propylene glycol solution acidified to ionize the active compound,more than 9 mg/mL
same,Soybean Oil Amt. Extracted,[4]; extracted from stock solution 1 (acidified propylene glycol),0.006 mg/mL
same,Soybean Oil Amt. Extracted,[4]; extracted from stock solution 2 (acidified propylene glycol + Tween 80),0.007 mg/mL
same,Soybean Oil Amt. Extracted,[4]; extracted from stock solution 3 (acidified propylene glycol + docusate sodium),0.28 mg/mL
same,Solubility relative to compound alone in propylene glycol,[5]; Formula I:docusate complex in propylene glycol,more than 80 fold
same,Concentration of the compound of Formula I in propylene glycol solution,[5]; dried Formula I:docusate sodium complex dissolved in propylene glycol,2500 µg/mL
same,Concentration relative to active compound and propylene glycol only,[5]; formulated with docusate sodium in acidified propylene glycol,80 times
same,Behaviour of solution in presence of sodium docusate,[6],precipitate out of solution
same,Potency as an A2a receptor antagonist,A2a receptor,considerable potency
